Reference: patent publication US20250223560A1, “NOX4 INHIBITOR COMPOSITIONS AND METHODS FOR REGENERATION OF DYSTROPHIC MUSCLE” (FULCRUM THERAPEUTICS, INC., priority 2022, published 2025)

Legend:
D2.mdx mice [1] = assay: Seven-day GKT831 treatment of six-month-old D2.mdx mice (apoptosis, gene expression); assay type: in vivo, mouse; conditions: gastrocnemius, 60 mg/kg, seven days, vs vehicle
Protocol: (§1) Mice were housed 3-5 mice per cage, randomly assigned into groups, provided ad libitum access to food (NIH-31 Open formulation diet; Envigo #7917), water, and enrichment, and maintained on a 12-hour light/dark system. Once daily (Q.D.) GKT831 (purchased from Ambeed, Inc.) was administered orally (P.O.) suspended at a concentration of 36 mg/mL in a vehicle consisting of sterilized sunflower seed oil (Sigma-Aldrich). […] The GKT831 treatment group received a dose of 60 mg/kg (21). All animal procedures were approved and conducted in accordance with the University of Florida IACUC and reported using the recommendations of ARRIVE guidelines.
(§2) OCT-embedded murine tissues were cryo-sectioned at […] and fixed in 4% PFA. Immunofluorescent analysis was performed using anti-NOX4 (1:2000; Abcam #13303), anti-laminin (1:800; Novus #MAB2549), anti-vimentin (1:1000; Novus #MB300), anti-PDGFRα (1:500; R&D Systems #AF1062), anti-SMA (1:1000; Abcam #ab5694), anti-periostin (1:500, Abcam #ab14041), anti-Pax7 (1:100; R&D Systems #MAB1675), anti-Myosin X (1:800; Sigma #HPA024223) and anti-active caspase-3 (1:1000; Cell Signaling 49661) primary antibodies. Mouse tissue sections incubated with mouse monoclonal antibodies were first incubated with a solution containing donkey anti-mouse IgG AffiniPure Fab fragments (1:25 in PBS; Jackson ImmunoResearch #715-007-003) for one hour prior to blocking. Following overnight incubation in primary antibody, sections were rinsed with PBS and incubated with the appropriate species-specific secondary antibody (1:500 dilution). Lipofuscin-dependent autofluorescence was quenched using a 0.1% solution of Sudan black B following secondary antibody incubation. Slides were cover-slipped using Prolong Gold mounting reagent (Invitrogen). Images were acquired using a Leica SP8 confocal microscope. All comparative images were stained simultaneously and acquired using identical settings. Human samples were obtained through the National Disease Research Interchange (Philadelphia, PA).
Gene expression analysis was conducted as previously described (17) using the following mouse-specific primers: Col1a2 (forward) 5′-ATGGTGGCAGCCAGTTTGAA-3′ (SEQ ID NO: 1) and (reverse) 5′-TCCAGGTACGCAATGCTGTT-3′ (SEQ ID NO: 2); Acta2 (forward) 5′-CTACTGCCGAGCGTGAGATTGTCC-3′ (SEQ ID NO: 3) and (reverse) 5′-GAGGGCCCAGCTTCGTCGTATT-3′ (SEQ ID NO: 4); 116 (forward) 5′-AACCACGGCCTTCCCTACTTC-3′ (SEQ ID NO: 5) and (reverse) 5′-TCTGGCTTTGTCTTTCTTGTTATC-3′ (SEQ ID NO: 6); Tgfb1 (forward) 5′-GACTCTCCACCTGCAAGACCAT-3′ (SEQ ID NO: 7) and (reverse) 5′-GGGACTGGCGAGCCTTAGTT-3′ (SEQ ID NO: 8); Gapdh (forward) 5′-AGCAGGCATCTGAGGGCCCA-3′ (SEQ ID NO: 9) and (reverse) 5′-TGTTGGGGGCCGAGTTGGGA-3′ (SEQ ID NO: 10). Relative gene expression quantification was performed using the ΔΔCt method with Gapdh as the normalization gene.
Because the presumed mechanism attributed to myofibroblast clearance has been that of promoting their apoptosis (20), a short-term study was performed to investigate acute changes in muscle that result from NOX4 inhibition.

D2.mdx mice [2] = assay: 3-month GKT831 treatment of D2.mdx mice, muscle histology and immunofluorescence; assay type: in vivo, mouse; conditions: 60 mg/kg P.O. Q.D.
Text: D2.mdx (Jax #013141) and D2.WT (Jax #000671) mice were originally obtained from Jackson Laboratory. The Nox4^KO:mdx mouse line was created by crossing the Nox4^tm1Klr knockout allele ((23); Jax #022996) onto the D2.mdx background for five generations, as previously reported (15). Following the second backcross, only Nox4^tm1Klr/+ mice homozygous for the DBA/2J polymorphism of […] were selected for continued line development (16). This is because both Nox4 and Ltbp4 are located on murine chromosome 7, and cross-over is required for both alleles to segregate together. At the completion of the backcrossing, Nox4 heterozygous breed pairs were mated to produce Nox4^WT:mdx and Nox4^KO:mdx littermates that were used in experiments. All mice were genotyped for Nox4 using primer sequences provided by Jackson Laboratory, and for Ltbp4 and mdx alleles using published genotyping primers (16).
as §1, §2
Picrosirius red staining was performed as previously described (14) following decalcification of muscle sections using Formical-2000 (StatLab). Slides were visualized with a Leica DMR microscope, and images were acquired using a Leica DFC310FX camera interfaced with Leica LAS X software. All comparative images were stained simultaneously and acquired using identical settings. Images were processed and analyzed by investigators blinded to study groups using ImageJ software, as previously described (14). Image quantification for each sample consisted of the mean value from five independent and randomly-selected fields of view for each muscle section.

In the case of `CN(C)c1cccc(-c2c3c(=O)n(-c4ccccc4Cl)[nH]c3cc(=O)n2C)c1` [FTX1620, Setanaxib], the “PDGFRα+ cells positive for active Caspase-3” value (D2.mdx mice [1]) is reported as “significantly more”, the Acta2 expression (D2.mdx mice [1]; real-time PCR) is reported as “decreased expression” and the Col1a2 expression (D2.mdx mice [1]; real-time PCR) is reported as “decreased expression”. For the same molecule, the Il6 expression (D2.mdx mice [1]; real-time PCR) was “decreased expression”, the Tgfb1 expression (D2.mdx mice [1]; real-time PCR) was “decreased expression” and the “localization of Pax7 cells” value (D2.mdx mice [2]; D2.mdx gastrocnemius, 3 months) was “largely re-localized”. The “muscle fibers having central nuclei” value (D2.mdx mice [2]; D2.mdx gastrocnemius, 3 months) was “increases”, the “muscle fibers with expression of myosin X” value (D2.mdx mice [2]; D2.mdx gastrocnemius, 3 months) was “increases” and the “myofibroblast numbers (PDGFRα, vimentin, SMA labeling)” value (D2.mdx mice [2]; D2.mdx gastrocnemius, 3 months) was “significantly reduced”. For the same molecule, the “muscle fibrosis (picrosirius red, diaphragm and gastrocnemius)” value (D2.mdx mice [2]; D2.mdx mice, 3 months of treatment, evaluated at 6 months of age, vs vehicle) was “reduced D2.mdx muscle fibrosis” and the “periostin+ area” value (D2.mdx mice [2]; D2.mdx muscle, 3 months) was “significantly reduced”.
